Assay results taken from patent publication US10787640B2, “Producing mesodermal cell types and methods of using the same” (The Board of Trustees of the Leland Stanford Junior …, priority 2015, dated 2020).

Legend:
Assay type in all cases: cell-based, human
day 2 paraxial mesoderm = test: Early somite progenitor formation from paraxial mesoderm, qPCR; details: 24 hours
Method: Day 2 paraxial mesoderm was briefly washed (DMEM/F12) and further differentiated into day 3 early somite/somitomere precursors for 24 hours (1 μM A-83-01+250 nM LDN-193189+1 μM C59+500 nM PD0325901). Subsequently, day 3 early somites were dorsoventrally patterned into either ventral somites/sclerotome (5 nM 21K+1 μM C59) or dorsal somites/dermomyotome (3 μM CHIR99021+150 nM Vismodegib). Sclerotome induction was conducted for 48-72 hours (leading to day 5-6 ventral somite progenitors). For dermomyotome induction, sometimes dermomyotome was induced in the presence of 50 ng/mL BMP4 to upregulate PAX7 after 48 hours of BMP4+CHIR99021+Vismodegib differentiation (leading to day 5 dermomyotome progenitors). Media was changed 24 hours for all steps.

[1] = system: hESC-derived primitive streak; test: Paraxial versus lateral/cardiac mesoderm specification from primitive streak; details: for paraxial mesoderm induction (qPCR day 2): ACF with DMH1 1 μM or LDN193189 250 nM, CDF with SB-505124 2 μM or A-83-01 1 μM, 24 hours
Method: Subsequently, day 1 anterior primitive streak was briefly washed (DMEM/F12) and differentiated towards day 2 paraxial mesoderm for 24 hours (1 μM A-83-01+3 μM CHIR99021+250 nM LDN-193189+20 ng/mL FGF2). Separately, day 1 mid primitive streak was differentiated towards day 2 lateral mesoderm for 24 hours (1 μM A-83-01+30 ng/mL BMP4+1 μM C59; with 2 μM SB-505124 sometimes used instead of A-83-01).
B) To assess whether FGF/ERK signaling was permissive for both paraxial and lateral/cardiac mesoderm specification, hESCs were differentiated into primitive streak for 24 hours, and then transferred into (i) A-83-01+DM3189 (“AD”; permissive for paraxial mesoderm) or (iii) A-83-01+BMP4+C59 (“AB+C59”; permissive for lateral/cardiac mesoderm) for 24 hours in the presence or absence of a FGF agonist (FGF2, 10-20 ng/mL), an FGFR inhibitor (PD173074, 100 nM) or a MAPK/ERK inhibitor (PD0325901, 500 nM) for 24 hours and qPCR for all experiments was conducted on day 2 (that is, after 48 total hours of hESC differentiation). To assess whether TGFβ signaling altered paraxial, intermediate and lateral/cardiac mesoderm specification, hESCs were differentiated into primitive streak for 24 hours, and then transferred into (ii) DM3189+FGF2 (“DF”; permissive for paraxial mesoderm) or (iv) BMP4+C59 (“B+C59”; permissive for lateral/cardiac mesoderm) for 24 hours in the presence of a TGFβ agonist (Activin, 10-25 ng/mL) or a TGFβR inhibitor (A-83-01, 1 μM) for 24 hours or (v) BMP4 (3 ng/mL)+FGF2 (20 ng/mL) (“B3F20”) for 24 hours in the presence of a TGFβ agonist (Activin, 3-25 ng/mL) or a TGFβR inhibitor (A-83-01, 1 μM) and qPCR for all experiments was conducted on day 2 (that is, after 48 total hours of hESC differentiation). […] Therefore, hESCs were differentiated towards primitive streak for 24 hours, and then subsequently transferred into (i) A-83-01+CHIR99021+FGF2 (ACF) in the presence or absence of one of two BMPR inhibitors (DMH1, 1 μM or LDN193189, 250 nM) for 24 hours and qPCR was conducted on day 2. Alternately, hESC-derived PS was transferred into (ii) CHIR99021+DM3189+FGF2 (CDF) for 24 hours in the presence or absence of a TGFβ agonist (25 ng/mL Activin) or one of two TGFβR inhibitors (SB-505124, 2 μM or A-83-01, 1 μM) for 24 hours and qPCR was conducted on day 2. […] E) To test the role of FGF in lateral mesoderm induction (on day 2 of hESC differentiation), NKX2.5-GFP hESCs were differentiated into mid primitive streak for 24 hours, and then were treated with BMP4+C59+SB505124 in the presence of an FGF agonist (FGF2, 20-50 ng/mL) or a FGFR inhibitor (PD173074, 100 nM) or a MAPK/ERK inhibitor (PD0325901, 500 nM) for 24 hours, and then all cultures were treated with BMP4+C59+SB505124+FGF2 for 24 hours more before being harvested on day 3 for FACS.

hESCs = test: Primitive streak (PS) induction from hESCs, qPCR
Method: As aforementioned, after overnight plating, hPSCs were briefly washed (with DMEM/F12) and then differentiated into either anterior primitive streak (30 ng/mL Activin A+4 μM CHIR99021+20 ng/mL FGF2+100 nM PIK90; for subsequent paraxial mesoderm induction) or mid primitive streak ([…] Activin A+40 ng/mL BMP4+6 μM CHIR99021+20 ng/mL FGF2+100 nM PIK90; for subsequent cardiac mesoderm induction) for 24 hrs.
Total cDNA was diluted 1:10-1:30 in H2O and qPCR was performed with the SensiFAST SYBR Lo-ROX Kit (Bioline) with 10 μL qPCR reactions per well in a 384-well plate: 5.0 μL 2× qPCR Master Mix+4.6 μL cDNA (totaling ˜120 ng of cDNA)+0.4 μL of 10 μM primer stock (5 μM forward+5 μM reverse primers). In general, gene-specific primer pairs were tested for (1) specificity of amplicon amplification (only one peak on a dissociation curve) and (2) linearity of amplicon amplification (linear detection of gene expression in cDNA samples serially diluted seven times over two orders of magnitude, with 90-110% efficiency of amplification deemed acceptably linear). After qPCR plates were prepared by arraying sample-specific cDNAs and gene-specific primers, they were sealed and briefly centrifuged (5 mins). 384-well qPCR plates and their adhesive sealing sheets were obtained from Thermo (AB1384 and AB0558, respectively). qPCR plates were run on a 7900HT Fast Real-Time PCR System (Applied Biosystems) with the following cycling parameters: initial dissociation (95° C., 2 mins) followed by 40 cycles of amplification and SYBR signal detection (95° C. dissociation, 5 seconds; 60° C. annealing, 10 seconds; followed by 72° C. extension, 30 seconds), with a final series of steps to generate a dissociation curve at the end of each qPCR run. During qPCR data analysis, the fluorescence threshold to determine Ct values was set at the linear phase of amplification; other qPCR data analysis methods including qPCR heatmap generation using the GenePattern platform (Broad Institute) were described previously by Loh et al., 2014, the disclosure of which is incorporated herein by reference in its entirety.
E) To assess whether inducing PS in the presence of TGFβ signaling altered its downstream potential to form different kinds of mesoderm, (i) H7 hESCs were differentiated into PS with CHIR99021+FGF2+PIK90 (CFK) for 24 hours in the presence or absence of increasing amounts of Activin (10-100 ng/mL), and then were transferred into paraxial mesoderm induction conditions (A-83-01+CHIR99021+DM3189+FGF2) for 24 hrs, and qPCR was conducted or (ii) H7 hESCs were differentiated into PS with BMP4 (10 ng/mL)+CHIR99021+FGF2+PIK90 (B10CFK) for 24 hours in the presence or absence of increasing amounts of Activin (10-100 ng/mL), and then were transferred into lateral/cardiac mesoderm inductions (A-83-01+BMP4+C59) for 24 hours and qPCR was conducted. […] F) To assess whether inducing PS in the presence of BMP signaling altered its downstream potential to form different kinds of mesoderm, H7 hESCs were differentiated into PS with Activin (10 ng/mL)+CHIR99021+FGF2+PIK90 (A10CFK) for 24 hours in the presence of absence of increasing amounts of BMP4 (1-40 ng/mL), and then were (i) transferred into paraxial mesoderm induction conditions (A-83-01+CHIR99021+DM3189+FGF2) for 24 hrs, and qPCR was conducted or were (ii) transferred into lateral/cardiac mesoderm inductions (A-83-01+BMP4+C59) for 24 hours and qPCR was conducted. […] G) H7 hESCs were differentiated into anterior primitive streak (30 ng/mL Activin+4 μM CHIR99021+20 ng/mL FGF2+100 nM PIK90) in the presence or absence of BMP4 (10 ng/mL) for 24 hours, and then transferred into paraxial mesoderm induction conditions for 24 hours before TBX6 immunostaining was conducted. […]

lateral mesoderm = test: Forelimb versus hindlimb progenitor specification from lateral mesoderm; details: RA signaling activated for 24 hours during lateral mesoderm induction (D1-2)
Method: Undifferentiated hPSCs (wild-type H7 as well as TBX5-Venus V19-2 H9 hESCs) were maintained in mTeSR1 media on Geltrex-coated plates. As described, they were differentiated into mid primitive streak for 24 hours (D0-1; 30 ng/mL Activin+40 ng/mL BMP4+6 μM CHIR99021+20 ng/mL FGF2+100 nM PIK90) and subsequently differentiated into lateral mesoderm (D1-2; 1 μM A-83-01+30 ng/mL BMP4+1 μM C59), with the inclusion of 50 nM of TTNPB or 2 μM ATRA on D1-2 for trunk lateral mesoderm that was subsequently competent for forelimb differentiation.
Day 2 trunk lateral mesoderm was differentiated into day 3 forelimb progenitors (D2-3; 1 μM A-83-01+1 μM DMH1+3 μM CHIR99021). By contrast, day 2 non-trunk lateral mesoderm was differentiated into day 3 hindlimb progenitors (D2-3; 25 ng/mL Activin+1 μM DMH1+3 μM CHIR99021).

SMILES	early somite marker expression (qPCR day 3) (day 2 paraxial mesoderm; CDPR with A-83-01 1 μM)	paraxial mesoderm induction (qPCR day 2) [1]	NKX2.5-GFP+ cardiac mesoderm induction (FACS day 3) ([1]; BMP4 (50 ng/mL)+C59, 48 hours, SB-505124 2 μM or A-83-01 1 μM, P<0.01)	PS differentiation (hESCs; CHIR99021+20 ng/mL FGF2+100 nM PIK90 with 2 μM SB-505124 or 1 μM A-83-01)	early somite marker expression (qPCR day 3) (day 2 paraxial mesoderm; CPR with DM3189 250 nM)	PS formation and anterior-posterior patterning (hESCs; ACFK with LDN193189 250 nM or BMP4 3-100 ng/mL)	early somite marker expression (qPCR day 3) (day 2 paraxial mesoderm; ACDP with RA 0.5-2 μM)	early somite marker expression (qPCR day 3) (day 2 paraxial mesoderm; ACDP with RA 0.5-2 μM, listed as RA)	forelimb transcription factor TBX5 expression on D3 (lateral mesoderm)
Cc1cccc(-c2nn(C(=S)Nc3ccccc3)cc2-c2ccnc3ccccc23)n1 [A-83-01, 3-(6-Methyl-2-pyridinyl)-N-phenyl-4-(4-quinolinyl)-1H-pyrazole-1-carbothioamide]	permissive for expression of early somite markers	serve to induce paraxial mesoderm	increased NKX2.5-GFP^+ cardiac mesoderm induction	strongly impairs PS differentiation	–	–	–	–	–
Cl.c1ccc2c(-c3cnn4cc(-c5ccc(N6CCNCC6)cc5)cnc34)ccnc2c1 [LDN193189, 4-[6-[4-(1-Piperazinyl)phenyl]pyrazolo[1,5-a]pyrimidin-3-yl]-quinoline hydrochloride]	–	serve to induce paraxial mesoderm	–	–	permissive for expression of early somite markers	fully abolished PS formation	–	–	–
CC1=C(/C=C/C(C)=C/C=C/C(C)=C/C(=O)O)C(C)(C)CCC1 [all-trans retinoic acid]	–	–	–	–	–	–	dispensable for the expression of early somite markers	dispensable for early somite formation	paramount for lateral mesoderm to subsequently express key forelimb transcription factor TBX5
